# Measured values as given in patent publication US20090311249A1, “Capecitabine Combination Therapy” (priority 2006, published 2009).
# Experiments:
# [1] = In vitro combination experiments of AP23573 with cytotoxics; format: cell-based; conditions: with several cytotoxics including 5-fluorouracil (5FU)
# VEGF = conditions: patients treated with AP23573; cited from earlier work
# [2] = Phase I and phase 2 single-agent trials of AP23573; format: in vivo, human; conditions: other dosing schedules
# [3] = system: VEGF production in tumor cells; conditions: in vitro; cited from earlier work
# [4] = Phase 1b trial: pharmacokinetics of CAPE and its key metabolites in plasma; format: in vivo, human; conditions: AP23573 co-administered with CAPE
# From the text: Planned pharmacokinetic (PK) and pharmacodynamic (PD) studies included: analysis of plasma, peripheral blood mononuclear cells (PBMC), skin, and tumor samples for effects on mTOR associated pathways*, VEGF* levels and the metabolism of CAPE and fluoropyrimidines (results of studies marked with a “*” are not presented herein).
Structure (SMILES),combination effect in vitro [1],VEGF levels (VEGF),dose limiting toxicity [2],effect on VEGF production [3],pharmacokinetics of 5FU [4]
CO[C@H]1C[C@@H]2CC[C@@H](C)[C@@](O)(O2)C(=O)C(=O)N2CCCC[C@H]2C(=O)O[C@H]([C@H](C)C[C@@H]2CC[C@@H](OP(C)(C)=O)[C@H](OC)C2)CC(=O)[C@H](C)/C=C(\C)[C@@H](O)[C@@H](OC)C(=O)[C@H](C)C[C@H](C)/C=C/C=C/C=C/1C [AP23573],at least additive,reduced VEGF levels,oral mucositis,inhibits VEGF production,
"O=c1[nH]cc(F)c(=O)[nH]1 [5FU, 5-fluorouracil]",,,,,not be impacted
